Entries after “also recorded” stand apart in the source; their conditions may differ.
Experiments:
Type in all cases: in vivo, rat
[1] = test system: Wistar rats with CFA-induced arthritis; experiment: Nociceptive tests (von Frey, Hargreaves) in rats with CFA-induced hindpaw monoarthritis; details: for nociceptive behavior (mechanical allodynia, ipsilateral hindpaw; FIG. 5A): intraperitoneal, 10 mg/day, twice daily for 14 consecutive days after CFA
Method: Hindpaw monoarthritis was induced by the injection of CFA (50 μl) into a unilateral tibio-tarsal joint cavity under brief isoflurane anesthesis (Butler, S. H., et al, and Weil-Fugazza, J. 1992. A limited arthritic model for chronic pain studies in the rat. Pain 48:73-81). Animals in sham groups received the injection of 50 μl Incomplete Freund's Adjuvant.
(§1) Under brief isoflurane anesthesia, a guide cannula (26 gauge, Plasticsone) was implanted just above the hippocampus (AP: −3.6 mm; left: +2.0 mm from Bregma; depth: −4.0 mm from skin) (Paxinos, G., and Watson, C. 1998. The rat brain in stertaxic coordinates. New York: Academic Press). An injection needle (33 gauge, Plasticsone) was inserted through the guide cannula and drug solution or vehicle (0.5 μl) was slowly injected over 5 min using a Hamilton syringe. Locations of the cannula placement were confirmed at the time of tissue harvest (data not shown).
(§2) Animals were habituated to a test setting (30-min session) for three consecutive days. Thermal withdrawal threshold was assessed using the Hargreaves' apparatus and method (Hargreaves, K., et al., 1988. A new and sensitive method for measuring thermal nociception in cutaneous hyperalgesia. Pain 32:77-88). Mechanical withdrawal threshold was assessed using von Frey filaments (Tal, M., and Bennett, G. J. 1994. Extra-territorial pain in rats with a peripheral mononeuropathy: mechano-hyperalgesia and mechano-allodynia in the territory of an uninjured nerve. Pain 57:375-382).

[2] = test system: Wistar rats with CFA-induced arthritis; experiment: Depressive behavior (forced swim test) in rats with CFA-induced hindpaw monoarthritis; details: for depressive behavior (immobility time in FST; FIG. 6H): 100 mg/kg intraperitoneally once on day 14, same arthritic rats, P>0.05
IL-6 = experiment: Plasma IL-6 level (ELISA) in rats with nociceptive and depressive behavior; details: systemic treatment; rats with both nociceptive and depressive behavior; data not shown
Method: Under pentobarbital anesthesia, whole blood was collected from the left ventricle of the heart and placed in a serum collection tube (BD Vacutainer). Blood clots were formed after 30-60 min at room temperature and the tube was centrifuged for 10 min at 12,000 rpm. ELISA Quantikine kit (R&D Systems) and IDO ELISA kit (TSZ ELISA) was used according to the manufacturer's instructions. Optical density of samples was read at wavelengths of 450 & 570 nm using a microplate reader (Synergy HT, Bio-TEK®). A standard curve, provided by the manufacturer, was generated for each set of samples assayed and the concentration of each sample was obtained according to the standard curve.

IDO1/TPH2 = IDO1/TPH2 expression in the hippocampus of CFA rats (Example 11); details: intraperitoneally once per day, day 1 to day 14 (1-MT 10 mg, fluoxetine 5 mg); tissue taken 7 days after discontinuation
Description: Rats were divided into five groups: 1) sham-operated rats treated with a vehicle (Sham), 2) CFA-induced hindpaw pain treated with vehicle (C-V). […] Each treatment was given intraperitoneally once per day from day 1 to day 14. Hippocampal tissue samples were taken after the last behavioral tests at 7 days after discontinuation of the corresponding drug treatment.

naive rats = experiment: Intra-hippocampal microinjection in naive rats: nociceptive and depressive behavior
Method: as §1, §2
FST was performed according to the original method by Porsolt et al (Porsolt, R. D., Le, P. M., and Jalfre, M. 1977. Depression: a new animal model sensitive to antidepressant treatments. Nature 266:730-732). The total duration of immobility (non-swimming) within a 5-min session was recorded as immobility scores (in seconds) and compared among groups.

IDO1 [3] = experiment: Intra-hippocampal microinjection in naive rats: hippocampal IDO1 mRNA (real-time PCR); details: intra-hippocampal microinjection alone, naive rats; P>0.05
Method: as §1
Total RNA was isolated from hippocampal samples using TRIzol reagent (Invitrogen). Four μg of total RNA was used to synthesize the first strand cDNA using SuperScript III kit (Invitrogen). Four μl of cDNA was put into 20 μl vessel with 1 μl of 20× TaqMan Gene Expression Assay. Taqman Gene Expression Assays (Applied Biosystems) containing primers and a Taqman probe were used to quantify each gene of interest. The genes examined were IL-6 (Rn01410330 m1, M26744.1) and IDO1 (Rn00576778 m1, AF312699.1) for rats and IL-6 (Mm00446190 m1, X54542.1) and IDO1 (Mm00492586 m1, M69109.1) for mice. […] The RNA expression of GAPDH was measured as control.

IDO1 [4] = experiment: Hippocampal IDO1 expression (Western blot, real-time PCR) in rats with CFA-induced arthritis; details: 100 mg/kg intraperitoneally once on day 14, same arthritic rats, P>0.05
Method: Rats were sacrificed under pentobarbital anesthesia.
Total RNA was isolated from hippocampal samples using TRIzol reagent (Invitrogen). Four μg of total RNA was used to synthesize the first strand cDNA using SuperScript III kit (Invitrogen). Four μl of cDNA was put into 20 μl vessel with 1 μl of 20× TaqMan Gene Expression Assay. Taqman Gene Expression Assays (Applied Biosystems) containing primers and a Taqman probe were used to quantify each gene of interest. […] The reaction was performed in duplicate with the following conditions: denaturing at 95° C. for 30 s, annealing at 60° C. for 2 min, extension at 68° C. for 2 min for 40 cycles using a 7300 Real-Time PCR System (Applied Biosystems). The RNA expression of GAPDH was measured as control.

[5] = 100 mg/kg intraperitoneally once on day 14, examined 1 hr after, arthritic rats, P<0.05 vs vehicle

## Cn1cc(C[C@H](N)C(=O)O)c2ccccc21 [1-MT, L-1-methyl-tryptophan]
[1]; intra-hippocampal microinjection, 5 μg in 0.5 μl, once daily x 7 d, contralateral to arthritic hindpaw, P<0.05
  nociceptive behavior (thermal hyperalgesia, ipsilateral hindpaw; FIG. 5C): attenuated thermal hyperalgesia
[1]; intra-hippocampal microinjection
  behaviors in sham control rats: without changing behaviors in sham control rats
[1]; arthritic rats, P<0.05 vs vehicle
  nociceptive behavior (mechanical allodynia, ipsilateral hindpaw; FIG. 5A): significantly attenuated
[1]; arthritic rats, P<0.05 vs vehicle, listed as L-1-MT
  nociceptive behavior (mechanical allodynia, ipsilateral hindpaw; FIG. 5A): attenuated mechanical allodynia
[1]; systemic (intraperitoneal) treatment alone
  behaviors in sham control rats: did not alter behaviors in sham controls rats
[2]; intra-hippocampal microinjection, 5 μg in 0.5 μl, once daily x 7 d, P<0.05
  depressive behavior (immobility time in forced swimming test; FIG. 5D): attenuated; also recorded: reduced the immobility time in forced swimming test
[2]; intraperitoneal, 10 mg/day, twice daily for 14 consecutive days after CFA, arthritic rats, P<0.05 vs vehicle
  depressive behavior (immobility time in forced swimming test; FIG. 5B): significantly attenuated; also recorded: improved the immobility time in forced swimming test
IL-6
  elevation of the plasma IL-6 level: did not prevent elevation of the plasma IL-6 level
IDO1/TPH2
  IDO up-regulation in the hippocampus: prevented the IDO up-regulation

## N#C/C(=C/c1ccc(O)c(O)c1)C(=O)NCc1ccccc1 [AG490]
Naive rats; 5 μg once daily x 7 d co-administered with IL-6 into the hippocampus of naive rats, each P<0.05
  IL-6 effects (mechanical allodynia, thermal hyperalgesia, depressive behavior, hippocampal IDO1 mRNA; FIG. 9E-H): prevented; also recorded: blocked
Naive rats; intra-hippocampal microinjection alone, naive rats, P>0.05
  baseline behavioral response: had no effect
IDO1 [3]
  IDO1 mRNA expression: had no effect

## CNCCC(Oc1ccc(C(F)(F)F)cc1)c1ccccc1 (stereo not shown) [SSRI, fluoxetine]
IDO1/TPH2
  IDO1/TPH2 ratio in the hippocampus: did not alter the IDO1/TPH2 ratio

## CC(=O)Nc1ccc(O)cc1 [acetaminophen, N-acetyl-para-aminophen]
IDO1 [4]
  hippocampal IDO1 mRNA level (FIG. 6I): nor did it alter the IDO1 mRNA level
IDO1 [4]; listed as APAP
  hippocampal IDO1 mRNA level (FIG. 6I): not reversed
[1]; [5]
  mechanical allodynia (ipsilateral; FIG. 6F): significantly reduced; also recorded: attenuated
  thermal hyperalgesia (FIG. 6G): significantly reduced; also recorded: attenuated
[2]
  depressive behavior (immobility time in FST; FIG. 6H): did not acutely reverse depressive behavior
[2]; listed as APAP
  depressive behavior (immobility time in FST; FIG. 6H): did not change the immobility time in FST

— patent US20150196533A1, “METHOD FOR CONCURRENT TREATMENT OF PAIN AND DEPRESSION” (The General Hospital Corporation, priority 2012, published 2015)
